The values below come from US20120289524A1, “PYRROLO [3,2-E] [1,2,4] TRIAZOLO [1,5-A] PYRIMIDINES DERIVATIVES AS INHIBITORS OF MICROGLIA ACTIVATION” (Senexis Limited, priority 2009, published 2012).

The subject of data set [1] is Mouse BALB/c monocyte macrophages, J774.2. Put plainly: Inhibition of β-amyloid induced activation: TNF-alpha release (ELISA / Meso Scale Discovery). The format is cell-based. As to conditions: J774.2 cells, 20 μM Aβ(1-42), 50 U/ml Interferon gamma, 24 hours, read-out: IC50 (μM) TNF-α release. As to the method:
(§1) 1. Inhibition of β-amyloid Induced Activation.
(§2) Mouse BALB/c monocyte macrophages, J774.2, {ECACC 85011428} were grown and sub-cultured in cell media (DMEM containing 10% FBS, 1% L-glutamine and 1% penicillin/streptomycin). The J774 cells were plated at 100,000 cells/well in 50 μl cell media on 96 well plates and placed in a 37° C., 5% CO2 incubator overnight prior to experiments.
(§3) The addition of Aβ(1-42) and compounds to the J774 cells was performed using a Biotek precision 2000 liquid handling instrument. 3 μl of compound in DMSO ranging from 8 μM to 6 mM were pipetted into a “daughter plate” containing 294 μl of cell media and mixed thoroughly. 3 μl of Aβ(1-42) in DMSO at 4 mM was then added to the “daughter plate” and mixed thoroughly. 50 μl was then removed from the “daughter plate” and added to the plated J774 cells. The final concentrations in the wells containing 100 μl cell media were 20 μM Aβ(1-42), the compounds ranged from ˜40 nM to 30 μM in 1% DMSO and also in the presence of 50 U/ml Interferon gamma. The plates were incubated for 24 hours in a 37° C., 5% CO2 incubator. After 24 hours incubation the media from the wells were collected and stored at −20° C. until required for testing.
The TNF-alpha levels in the media were tested using a TNF-alpha ELISA (R&D Systems MTA00) or Meso Scale Discovery MS6000 Mouse Proinflammatory-7 kit, using the manufacturers instructions.

For data set [2] the test system is unchanged. Put plainly: Inhibition of β-amyloid induced activation: nitric oxide release (Griess assay). Type of data set: cell-based. Conditions: J774.2 cells, 20 μM Aβ(1-42), 50 U/ml Interferon gamma, 24 hours, read-out: IC50 (μM) NO release. As to the method:
as §1, §2, §3
The nitric oxide levels in the media were tested using the Griess assay (Promega G2930) using the manufacturer's instructions.

The next data set can be described thus: Pharmacokinetic data. As to conditions: in vivo; for bioavailability: oral.
Where [3] appears, read: iv, read-out: T1/2 i.v. (converted).
The mark [4] stands for this setting: per oral, read-out: T1/2 per oral (converted).

Where two headings read alike, the source gives them in different places.

The term IC50 denotes the concentration needed to halve the response being measured. As a reminder, the bioavailability is dose-corrected exposure relative to a reference, in per cent. Regarding `Cc1nc2ncnn2c2c1CCN2[C@@H](C)c1ccc(F)cc1` [Compound 1], the IC50 worked out at 0.48 µM in data set [1] and 0.24 µM in data set [2]. Further, the half-life in the data set “Pharmacokinetic data” (setting [3]) is 0.87 h; in the data set “Pharmacokinetic data” (setting [4]) it was 3.2 h. The compound also yielded a bioavailability in “Pharmacokinetic data” of 98.5%.
As for `Cc1nc2ncnn2c2c1CCN2[C@H](C)c1ccccc1` [Compound 4, reference compound], the IC50 in data set [1] was greater than 30 µM.
As for `Cc1nc2ncnn2c2c1CCN2[C@@H](C)c1ccccc1` [reference compound], the half-life is 0.22 h in the data set “Pharmacokinetic data” (setting [3]) and 2.4 h in “Pharmacokinetic data” (setting [4]). In addition, the bioavailability in the data set “Pharmacokinetic data” was 34.5%.
